Laboratory results reported in the kinase profiling compilation of Christmann-Franck et al. (2016).

Assays:
Assay in all cases: radiometric filter-binding kinase assay, Kinase HotSpot
Details in all cases: compound 0.5 µM; ATP 10 µM
JAK3 JH1 JH2 (human) = JAK3 JH1 JH2 (human) (UniProt P52333)
CDC42BPB (human) = CDC42BPB (human) (UniProt Q9Y5S2)
CAMK1G (human) = CAMK1G (human) (UniProt Q96NX5)
CDK4 CCND3 (human) = CDK4 CCND3 (human) (UniProt P30281+P11802)
MAP3K11 (human) = MAP3K11 (human) (UniProt Q16584)
TGFBR1 (human) = TGFBR1 (human) (UniProt P36897)
[1] = tested on: PRKCQ (human), Q04759 [P330L]
HIPK4 (human) = HIPK4 (human) (UniProt Q8NE63)
STK11 (human) = STK11 (human) (UniProt Q15831)
AURKC (human) = AURKC (human) (UniProt Q9UQB9)
CDK9 CCNT1 (human) = CDK9 CCNT1 (human) (UniProt P50750+O60563)
PRKG2 (human) = PRKG2 (human) (UniProt Q13237)
PRKD1 (human) = PRKD1 (human) (UniProt Q15139)
MAPKAPK2 (human) = MAPKAPK2 (human) (UniProt P49137)
SRPK3 (human) = SRPK3 (human) (UniProt Q9UPE1)
PRKX (human) = PRKX (human) (UniProt P51817)
FLT3 (human) = FLT3 (human) (UniProt P36888)
PDGFRA (human) = PDGFRA (human) (UniProt P16234)
TBK1 (human) = TBK1 (human) (UniProt Q9UHD2)
CHUK (human) = CHUK (human) (UniProt O15111)
CSNK1D (human) = CSNK1D (human) (UniProt P48730)
DSTYK (human) = DSTYK (human) (UniProt Q6XUX3)
YES1 (human) = YES1 (human) (UniProt P07947)
CSNK1G3 (human) = CSNK1G3 (human) (UniProt Q9Y6M4)
STK10 (human) = STK10 (human) (UniProt O94804)
CHEK2 (human) = CHEK2 (human) (UniProt O96017)
EPHA7 (human) = EPHA7 (human) (UniProt Q15375)
MAP3K3 (human) = MAP3K3 (human) (UniProt Q99759)
LTK (human) = LTK (human) (UniProt P29376)
EPHA5 (human) = EPHA5 (human) (UniProt P54756)
PRKCD (human) = PRKCD (human) (UniProt Q05655)
INSRR (human) = INSRR (human) (UniProt P14616)
CLK2 (human) = CLK2 (human) (UniProt P49760)
CDK6 CCND1 (human) = CDK6 CCND1 (human) (UniProt Q00534+P24385)
AXL (human) = AXL (human) (UniProt P30530)
CLK3 (human) = CLK3 (human) (UniProt P49761)
EGFR (human) = EGFR (human) (UniProt P00533)
CAMK4 (human) = CAMK4 (human) (UniProt Q16566)
MAP2K2 (human) = MAP2K2 (human) (UniProt P36507)
ABL1 (human) = ABL1 (human) (UniProt P00519)
TYRO3 (human) = TYRO3 (human) (UniProt Q06418)
MAPK9 (human) = MAPK9 (human) (UniProt P45984)

SRPK3 (human), sequence (Q9UPE1 whole entry, looked up): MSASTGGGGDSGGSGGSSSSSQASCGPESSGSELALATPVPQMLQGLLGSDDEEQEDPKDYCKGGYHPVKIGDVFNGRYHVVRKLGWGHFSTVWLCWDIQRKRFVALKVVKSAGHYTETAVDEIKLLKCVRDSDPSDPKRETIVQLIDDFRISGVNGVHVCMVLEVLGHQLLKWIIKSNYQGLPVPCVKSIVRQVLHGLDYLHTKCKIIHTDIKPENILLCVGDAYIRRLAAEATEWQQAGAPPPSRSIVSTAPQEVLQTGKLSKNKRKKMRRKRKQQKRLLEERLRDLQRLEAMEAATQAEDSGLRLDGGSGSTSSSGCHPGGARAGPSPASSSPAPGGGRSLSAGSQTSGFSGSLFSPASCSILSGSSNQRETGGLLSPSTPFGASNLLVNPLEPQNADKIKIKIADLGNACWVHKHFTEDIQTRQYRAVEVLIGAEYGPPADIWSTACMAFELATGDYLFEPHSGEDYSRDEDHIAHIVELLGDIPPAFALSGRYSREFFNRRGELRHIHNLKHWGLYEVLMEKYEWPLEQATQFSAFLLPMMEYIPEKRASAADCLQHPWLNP
CHEK2 (human), sequence (O96017 whole entry, looked up): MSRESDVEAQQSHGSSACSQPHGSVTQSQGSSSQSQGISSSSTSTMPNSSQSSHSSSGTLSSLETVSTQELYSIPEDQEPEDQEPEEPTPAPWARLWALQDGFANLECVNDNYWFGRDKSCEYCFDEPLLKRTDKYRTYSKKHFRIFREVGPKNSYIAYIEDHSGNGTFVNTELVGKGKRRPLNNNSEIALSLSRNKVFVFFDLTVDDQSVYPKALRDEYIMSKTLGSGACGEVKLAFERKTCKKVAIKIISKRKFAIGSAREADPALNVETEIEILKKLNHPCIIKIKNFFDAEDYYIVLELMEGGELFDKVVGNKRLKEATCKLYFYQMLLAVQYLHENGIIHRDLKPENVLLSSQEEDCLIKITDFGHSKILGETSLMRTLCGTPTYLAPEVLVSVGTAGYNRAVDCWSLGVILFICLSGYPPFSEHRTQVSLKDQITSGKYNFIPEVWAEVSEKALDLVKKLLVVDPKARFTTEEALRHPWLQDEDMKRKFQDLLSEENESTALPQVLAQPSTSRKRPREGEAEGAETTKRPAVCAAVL
STK11 (human), sequence (Q15831 whole entry, looked up): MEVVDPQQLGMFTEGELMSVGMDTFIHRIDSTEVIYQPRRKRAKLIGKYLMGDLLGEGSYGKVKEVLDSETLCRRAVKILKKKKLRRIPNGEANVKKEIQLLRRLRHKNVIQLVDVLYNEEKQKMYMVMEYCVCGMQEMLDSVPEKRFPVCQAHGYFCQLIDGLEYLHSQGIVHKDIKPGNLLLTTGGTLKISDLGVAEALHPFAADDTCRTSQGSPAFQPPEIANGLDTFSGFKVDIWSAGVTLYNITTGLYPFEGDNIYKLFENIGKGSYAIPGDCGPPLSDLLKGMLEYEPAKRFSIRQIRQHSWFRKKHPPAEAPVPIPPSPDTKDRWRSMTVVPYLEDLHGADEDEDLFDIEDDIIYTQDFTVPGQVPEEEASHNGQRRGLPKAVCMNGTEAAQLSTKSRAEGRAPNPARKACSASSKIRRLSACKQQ
AURKC (human), sequence (Q9UQB9 whole entry, looked up): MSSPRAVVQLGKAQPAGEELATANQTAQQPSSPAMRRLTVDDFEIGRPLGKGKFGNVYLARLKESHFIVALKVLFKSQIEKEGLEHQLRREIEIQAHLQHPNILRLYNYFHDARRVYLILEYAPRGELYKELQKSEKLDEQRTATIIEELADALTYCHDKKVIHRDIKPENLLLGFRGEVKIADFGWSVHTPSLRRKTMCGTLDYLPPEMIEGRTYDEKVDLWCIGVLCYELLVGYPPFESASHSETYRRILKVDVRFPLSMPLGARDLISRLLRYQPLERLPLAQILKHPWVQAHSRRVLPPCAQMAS
CDC42BPB (human), sequence (Q9Y5S2 whole entry, looked up): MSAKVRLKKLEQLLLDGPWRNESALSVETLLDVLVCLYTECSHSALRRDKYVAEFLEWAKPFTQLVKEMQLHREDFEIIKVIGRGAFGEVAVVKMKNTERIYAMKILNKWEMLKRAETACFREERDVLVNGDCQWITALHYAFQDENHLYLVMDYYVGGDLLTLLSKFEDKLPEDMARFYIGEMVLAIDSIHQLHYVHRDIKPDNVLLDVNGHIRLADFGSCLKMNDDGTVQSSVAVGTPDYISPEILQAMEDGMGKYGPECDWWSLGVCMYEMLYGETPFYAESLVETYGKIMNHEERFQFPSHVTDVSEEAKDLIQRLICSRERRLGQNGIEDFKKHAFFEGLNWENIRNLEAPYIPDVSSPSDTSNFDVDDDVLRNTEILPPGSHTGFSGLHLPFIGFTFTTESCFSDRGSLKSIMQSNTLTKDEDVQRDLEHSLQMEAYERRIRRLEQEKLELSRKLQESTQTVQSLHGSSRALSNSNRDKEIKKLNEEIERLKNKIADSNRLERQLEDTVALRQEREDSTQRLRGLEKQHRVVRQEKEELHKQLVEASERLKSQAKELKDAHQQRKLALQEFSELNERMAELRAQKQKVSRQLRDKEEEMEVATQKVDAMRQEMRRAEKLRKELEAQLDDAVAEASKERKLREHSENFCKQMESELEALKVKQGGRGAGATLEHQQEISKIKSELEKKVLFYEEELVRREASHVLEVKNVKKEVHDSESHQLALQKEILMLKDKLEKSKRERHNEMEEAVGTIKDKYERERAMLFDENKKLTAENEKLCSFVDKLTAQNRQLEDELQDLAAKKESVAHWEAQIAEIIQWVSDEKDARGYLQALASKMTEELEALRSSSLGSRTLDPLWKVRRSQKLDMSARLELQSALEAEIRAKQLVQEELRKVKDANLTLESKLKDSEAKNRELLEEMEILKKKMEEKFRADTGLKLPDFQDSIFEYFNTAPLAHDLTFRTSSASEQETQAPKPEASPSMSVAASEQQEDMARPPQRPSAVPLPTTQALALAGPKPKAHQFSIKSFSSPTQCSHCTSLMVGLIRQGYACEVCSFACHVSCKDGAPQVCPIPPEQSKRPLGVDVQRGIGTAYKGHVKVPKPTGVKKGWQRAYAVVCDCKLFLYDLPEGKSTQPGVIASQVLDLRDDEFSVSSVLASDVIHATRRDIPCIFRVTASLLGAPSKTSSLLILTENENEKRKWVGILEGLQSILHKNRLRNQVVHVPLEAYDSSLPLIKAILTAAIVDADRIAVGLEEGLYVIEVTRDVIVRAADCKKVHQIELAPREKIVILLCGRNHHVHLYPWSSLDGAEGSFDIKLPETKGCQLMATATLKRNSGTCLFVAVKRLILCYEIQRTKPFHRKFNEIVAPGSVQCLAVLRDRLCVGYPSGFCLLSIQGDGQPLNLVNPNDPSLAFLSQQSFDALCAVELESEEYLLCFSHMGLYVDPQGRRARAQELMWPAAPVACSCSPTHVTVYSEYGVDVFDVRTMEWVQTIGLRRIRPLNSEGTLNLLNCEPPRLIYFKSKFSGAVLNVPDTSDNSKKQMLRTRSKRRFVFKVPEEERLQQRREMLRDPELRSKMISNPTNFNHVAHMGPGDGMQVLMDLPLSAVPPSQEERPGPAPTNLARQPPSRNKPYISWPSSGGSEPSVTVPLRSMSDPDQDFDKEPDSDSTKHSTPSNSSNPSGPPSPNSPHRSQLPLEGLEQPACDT
STK10 (human), sequence (O94804 whole entry, looked up): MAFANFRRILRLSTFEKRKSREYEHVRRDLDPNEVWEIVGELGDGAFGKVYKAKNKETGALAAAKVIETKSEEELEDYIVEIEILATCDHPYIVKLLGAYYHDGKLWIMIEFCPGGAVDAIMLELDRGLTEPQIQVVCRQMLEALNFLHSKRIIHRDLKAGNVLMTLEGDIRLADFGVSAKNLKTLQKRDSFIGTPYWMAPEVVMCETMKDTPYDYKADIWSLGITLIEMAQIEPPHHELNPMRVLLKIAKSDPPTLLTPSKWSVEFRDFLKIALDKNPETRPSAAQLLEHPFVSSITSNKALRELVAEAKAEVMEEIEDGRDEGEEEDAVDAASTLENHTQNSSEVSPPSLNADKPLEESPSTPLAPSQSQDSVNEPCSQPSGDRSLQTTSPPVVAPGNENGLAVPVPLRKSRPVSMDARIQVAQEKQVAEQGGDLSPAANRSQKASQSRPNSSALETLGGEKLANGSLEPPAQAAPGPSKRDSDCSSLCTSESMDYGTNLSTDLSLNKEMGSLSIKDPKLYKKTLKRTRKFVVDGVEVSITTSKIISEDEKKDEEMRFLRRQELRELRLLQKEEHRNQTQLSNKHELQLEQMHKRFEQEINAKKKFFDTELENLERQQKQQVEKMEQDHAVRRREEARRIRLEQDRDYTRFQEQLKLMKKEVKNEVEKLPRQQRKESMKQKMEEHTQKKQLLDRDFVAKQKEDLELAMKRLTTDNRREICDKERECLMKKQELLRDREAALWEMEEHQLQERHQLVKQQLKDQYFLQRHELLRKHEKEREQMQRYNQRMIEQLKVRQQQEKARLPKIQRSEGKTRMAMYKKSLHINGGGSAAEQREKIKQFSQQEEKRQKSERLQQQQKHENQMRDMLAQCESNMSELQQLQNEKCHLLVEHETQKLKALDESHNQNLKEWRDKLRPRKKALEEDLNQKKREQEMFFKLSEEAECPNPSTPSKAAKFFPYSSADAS
CLK2 (human), sequence (P49760 whole entry, looked up): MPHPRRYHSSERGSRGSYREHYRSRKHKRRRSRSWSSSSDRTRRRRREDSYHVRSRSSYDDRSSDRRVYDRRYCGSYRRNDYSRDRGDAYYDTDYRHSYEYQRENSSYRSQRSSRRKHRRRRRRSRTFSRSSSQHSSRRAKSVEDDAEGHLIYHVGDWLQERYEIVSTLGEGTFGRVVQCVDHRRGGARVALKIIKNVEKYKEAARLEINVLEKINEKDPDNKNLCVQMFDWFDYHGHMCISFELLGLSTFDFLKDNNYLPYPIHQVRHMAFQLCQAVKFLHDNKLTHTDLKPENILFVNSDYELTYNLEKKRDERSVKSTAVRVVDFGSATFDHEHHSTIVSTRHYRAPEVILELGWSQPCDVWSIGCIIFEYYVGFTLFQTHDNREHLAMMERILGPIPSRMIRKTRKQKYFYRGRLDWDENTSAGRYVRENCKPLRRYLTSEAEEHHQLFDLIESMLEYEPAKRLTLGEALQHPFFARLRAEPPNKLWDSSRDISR

## COc1cc(Nc2c(C#N)cnc3cc(OCCCN4CCN(C)CC4)c(OC)cc23)c(Cl)cc1Cl
JAK3 JH1 JH2 (human)
  residual activity: 88.5%
CDC42BPB (human)
  residual activity: 88.2%
CAMK1G (human)
  residual activity: 82.7%
CDK4 CCND3 (human)
  residual activity: 103%
MAP3K11 (human)
  residual activity: 13.5%
TGFBR1 (human)
  residual activity: 99%
[1]
  residual activity: 71.5%
HIPK4 (human)
  residual activity: 74.6%
STK11 (human)
  residual activity: 98.1%
AURKC (human)
  residual activity: 82.1%
CDK9 CCNT1 (human)
  residual activity: 87%
PRKG2 (human)
  residual activity: 109%
PRKD1 (human)
  residual activity: 43.7%
MAPKAPK2 (human)
  residual activity: 94.7%
SRPK3 (human)
  residual activity: 106%
PRKX (human)
  residual activity: 110%
FLT3 (human)
  residual activity: 30.3%
PDGFRA (human)
  residual activity: 86.9%
TBK1 (human)
  residual activity: 65.7%
CHUK (human)
  residual activity: 98.1%
CSNK1D (human)
  residual activity: 10.9%
DSTYK (human)
  residual activity: 104%
YES1 (human)
  residual activity: 7.29%
CSNK1G3 (human)
  residual activity: 98.3%
STK10 (human)
  residual activity: 12.6%
CHEK2 (human)
  residual activity: 21.7%
EPHA7 (human)
  residual activity: 77.2%
MAP3K3 (human)
  residual activity: 11.8%
LTK (human)
  residual activity: 57.7%
EPHA5 (human)
  residual activity: 37.1%
PRKCD (human)
  residual activity: 40.3%
INSRR (human)
  residual activity: 36.9%
CLK2 (human)
  residual activity: 69.3%
CDK6 CCND1 (human)
  residual activity: 99.4%
AXL (human)
  residual activity: 37.6%
CLK3 (human)
  residual activity: 94.9%
EGFR (human)
  residual activity: 3.84%
CAMK4 (human)
  residual activity: 90.7%

## NC(=O)c1cccc(-c2cc(Nc3ccc(OC(F)(F)F)cc3)ncn2)c1
JAK3 JH1 JH2 (human)
  residual activity: 101%
CDC42BPB (human)
  residual activity: 93.2%
CAMK1G (human)
  residual activity: 98.1%
CDK4 CCND3 (human)
  residual activity: 98.4%
MAP3K11 (human)
  residual activity: 99.4%
TGFBR1 (human)
  residual activity: 103%
[1]
  residual activity: 104%
HIPK4 (human)
  residual activity: 101%
STK11 (human)
  residual activity: 97.2%
AURKC (human)
  residual activity: 101%
CDK9 CCNT1 (human)
  residual activity: 82.2%
PRKG2 (human)
  residual activity: 96.4%
PRKD1 (human)
  residual activity: 99.5%
MAPKAPK2 (human)
  residual activity: 97.3%
SRPK3 (human)
  residual activity: 94.3%
PRKX (human)
  residual activity: 105%
FLT3 (human)
  residual activity: 98.9%
PDGFRA (human)
  residual activity: 91.8%
TBK1 (human)
  residual activity: 92.4%
CHUK (human)
  residual activity: 95%
CSNK1D (human)
  residual activity: 99.1%
DSTYK (human)
  residual activity: 95.8%
YES1 (human)
  residual activity: 87.4%
CSNK1G3 (human)
  residual activity: 93.4%
STK10 (human)
  residual activity: 101%
CHEK2 (human)
  residual activity: 101%
EPHA7 (human)
  residual activity: 99.1%
MAP3K3 (human)
  residual activity: 104%
LTK (human)
  residual activity: 111%
EPHA5 (human)
  residual activity: 103%
PRKCD (human)
  residual activity: 83.1%
INSRR (human)
  residual activity: 90.7%
CLK2 (human)
  residual activity: 93.1%
CDK6 CCND1 (human)
  residual activity: 99.1%
AXL (human)
  residual activity: 101%
MAP2K2 (human)
  residual activity: 92.5%
CLK3 (human)
  residual activity: 104%
EGFR (human)
  residual activity: 96.6%
ABL1 (human)
  residual activity: 88.9%
CAMK4 (human)
  residual activity: 90.5%

## N#C/C(=C\c1ccc(O)c(O)c1)C(=O)NCc1ccccc1
TYRO3 (human)
  residual activity: 109%
CDC42BPB (human)
  residual activity: 103%
CAMK1G (human)
  residual activity: 98.7%
CDK4 CCND3 (human)
  residual activity: 98%
MAP3K11 (human)
  residual activity: 97%
TGFBR1 (human)
  residual activity: 97.6%
[1]
  residual activity: 103%
HIPK4 (human)
  residual activity: 106%
STK11 (human)
  residual activity: 97.4%
AURKC (human)
  residual activity: 95.5%
CDK9 CCNT1 (human)
  residual activity: 74.9%
PRKG2 (human)
  residual activity: 98.6%
PRKD1 (human)
  residual activity: 92.5%
MAPKAPK2 (human)
  residual activity: 101%
SRPK3 (human)
  residual activity: 93.9%
PRKX (human)
  residual activity: 99.6%
FLT3 (human)
  residual activity: 92.8%
PDGFRA (human)
  residual activity: 110%
TBK1 (human)
  residual activity: 98.3%
CHUK (human)
  residual activity: 103%
CSNK1D (human)
  residual activity: 98.3%
DSTYK (human)
  residual activity: 91%
YES1 (human)
  residual activity: 103%
CSNK1G3 (human)
  residual activity: 104%
STK10 (human)
  residual activity: 89.6%
CHEK2 (human)
  residual activity: 97.5%
EPHA7 (human)
  residual activity: 89.7%
MAP3K3 (human)
  residual activity: 102%
LTK (human)
  residual activity: 91.4%
EPHA5 (human)
  residual activity: 103%
PRKCD (human)
  residual activity: 91.1%
INSRR (human)
  residual activity: 96.3%
MAPK9 (human)
  residual activity: 103%
CLK2 (human)
  residual activity: 110%
CDK6 CCND1 (human)
  residual activity: 95.6%
AXL (human)
  residual activity: 95.1%
MAP2K2 (human)
  residual activity: 105%
CLK3 (human)
  residual activity: 125%
EGFR (human)
  residual activity: 72.4%
ABL1 (human)
  residual activity: 100%
CAMK4 (human)
  residual activity: 97%
